# Measured values taken from US20130085105A1, “Transdermal Administration Of Peptides” (The Provost, Fellows and Scholars of the College of Holy …, priority 2010, published 2013).
# Columns and labels:
# [1] = Partition coefficients n-octanol/deionized water and n-octanol/PBS; assay type: physicochemical; conditions: 24 hours
# Procedure: The partition coefficients for all somatostatin-fatty acid salts in either n-octanol/deionized water or n-octanol/PBS (pH 7.4) were determined. The partition coefficient is the concentration of Compound A or Compound B in the n-octanol phase divided by the concentration in the aqueous or PBS phase.
# An accurately weighed sample of each salt was placed into 4 ml HPLC vials sealed with caps containing pierceable silicone septa and dissolved in 2 ml n-octanol. Two ml of either deionized water or PBS were added to each sample; the vials were vortexed vigorously and incubated at 37° C. with agitation for 24 hours in a shaker-incubator at 400 rpm.
# Following incubation, two samples were withdrawn from each vial. Once the layers had fully partitioned, a syringe was used to draw a sample of the aqueous phase or the n-octanol phase. Samples from each phase were diluted appropriately with deionized or methanol prior to HPLC analysis.
# [2] = In vitro transdermal permeation, diffusion cell, hairless mouse skin; assay type: in vitro ADME, hairless mice
# Text: The abdominal skin from male hairless mice (mice of the HRS strain carrying a mutant Hr gene (hr/hr)) aged 6-8 weeks was cleaned of any subcutaneous fat with blood vessels while maintaining the integrity of the viable epidermis and SC. The excised skin was used immediately after preparation and was not stored prior to use.
# (§1) A custom made finite dosing diffusion cell (AGB Scientific, Dublin, Ireland, FIG. 1) based upon and modified from the Keshary-Chien type diffusion cell was used for in vitro permeation studies.
# (§2) Three to five diffusion cells were used in each permeation experiment and monitoring was performed over a 48 hour period. The cells were linked in series to a thermostatically controlled circulation bath set at 35° C. to mimic human skin surface temperature. Each cell was placed on a stir-plate set at a defined stirring rate of 1,000 rpm. The surface area for permeation provided by each cell was 3.14 cm^2.
# (§3) Data collected from each permeation study included:
# (§4) 1) the average maximum flux obtained in 48 hours (Jmax),
# (§5) 2) the total absorption characterized as the total weight of peptide delivered transdermally into the receiver compartment over a 48 hour period,
# (§6) 3) the lag time to detectable flux which was equivalent to the latest sampling time at which no peptide was detectable by HPLC analysis of the receiver solution, and
# (§7) 4) an equivalent 48-hour steady state flux was determined by obtaining the slope of the best-fit line for a plot of cumulative flux per unit area versus time (described by McDaid, D. M. et al., Int. J. Pharm., 133:71-83, 1996).
# (§8) Fresh hairless mouse skin samples or fresh or freshly thawed pig skin samples were mounted onto the diffusion cell with the SC topmost and in contact with the donor system. A rubber or plastic ring was placed on top of the skin sample to secure it in position. The combination of the diffusion cell top, the skin and the rubber ring was securely fastened together by means of a threaded cap. A recorded volume of receiver solution was added to the receiver compartment and maintained at 35° C. The receiver solution was 60/40 (v/v) PBS/propylene glycol (pH 7.1). The propylene glycol fraction was used to increase the solubility of the somatostatin-fatty acid salts. Previous work reported by Morgan et al. (J. Pharm. Sci., 87:1213-1218, 1998) has shown that a 50/50 water/propylene glycol receptor solution had no detrimental effect on the barrier integrity of both hairless mouse and porcine skin.
# The receiver solution was allowed to equilibrate at 35° C. for 30 minutes. […] A narrow-bore hypodermic needle was used to withdraw 1 ml samples from the receiver compartment via the sampling port; at each sampling time, an equal volume of drug-free receiver solution was immediately added back to the receiver compartment. Samples were analyzed by HPLC.
# HPLC determination of peptide content in the receiver solution along with the known surface area of skin used (3.14 cm^2) allowed for calculation of transdermal flux (in units of μg/cm^2/hr) for each time point. Panels 1 and 2 of FIG. 2 show flux […] profiles for the myristate, octanoate, decanoate, linoleate, nonanote, acetate and laurate […]
# Once lead candidate somatostatin-fatty acid salts had been selected on the basis of in vitro permeation in a DMSO solution, the effect of different solvents and penetration enhancers on permeation was assessed. The concentration of the donor solution corresponded to 5 mg/ml free base peptide for all experiments and all donor solutions were equilibrated at 37° C. for one hour prior to use. These experiments were carried out using hairless mouse skin and pigskin barriers.
# [3] = In vitro transdermal permeation, diffusion cell, pig epidermis; assay type: in vitro ADME, domestic pigs
# Procedure: The viable epidermal layer was removed from the flanks of freshly sacrificed four month-old female domestic pigs. The flank area of each animal was carefully shaved and the upper 200 μm of skin (Meyer, W., et al., Curr. Prob. Dermatol., 7: 39-52, 1978; de Jalón, et al., J. Control. Rel., 75:191-197, 2001) was harvested using an electric dermatome (Robbins Instruments, Chatham, N.J., U.S.A.). Pigskin epidermal specimens were frozen at −18° C. between layers of PBS-soaked tissue paper enclosed in aluminum foil for up to two weeks prior to use in in vitro permeation studies.
# as §1, §2, §3, §4, §5, §6, §7, §8
# The receiver solution was allowed to equilibrate at 35° C. for 30 minutes. The experiment was initiated by the application of 1 ml of donor solution containing approximately 5 mg free base peptide in DMSO to the skin surface followed by sealing of the donor compartment with Parafilm®. A narrow-bore hypodermic needle was used to withdraw 1 ml samples from the receiver compartment via the sampling port; at each sampling time, an equal volume of drug-free receiver solution was immediately added back to the receiver compartment. Samples were analyzed by HPLC.
# HPLC determination of peptide content in the receiver solution along with the known surface area of skin used (3.14 cm^2) allowed for calculation of transdermal flux (in units of μg/cm^2/hr) for each time point. Panels 1 and 2 of FIG. 2 show flux profiles obtained for the oleate salts of Compound A and Compound B in DMSO which far exceeded the flux profiles for the myristate, octanoate, decanoate, linoleate, nonanote, acetate and laurate salts of Compound A as well as the acetate salt of Compound B in DMSO. […]
# [4] = n-octanol/deionized water, 37° C.
# [5] = donor 55% EtOH 40% Water 5% Cineole, 5 mg/ml free base peptide
# [6] = donor 55/45 (v/v) EtOH/H2O, approx. 5 mg/ml free base peptide
# [7] = donor DMSO, approx. 5 mg/ml free base peptide (4.9 mg/ml Compound A oleate, 5.2 mg/ml Compound A acetate)
# [8] = donor DMSO, approx. 5 mg/ml free base peptide (4.9 mg/ml Compound A oleate, 5.2 mg/ml Compound A acetate), 48 hr
# [9] = pig epidermis overlaid with microporous polypropylene membrane, EtOH/Water/Cineole + 5% (w/v) HPC, 5 mg/ml
# [10] = pig epidermis, donor 55% EtOH 40% Water 5% Cineole, 5 mg/ml free base peptide
# [11] = pig epidermis, donor 80% Prop. Glycol 15% Decanol 5% Cineole
# [12] = pig epidermis, donor 80% Prop. Glycol 15% Dodecanol 5% Cineole
substance,measurement,setting,value
[4-(2-hydroxyethyl)]-1-piperazinylacetyl-D-Phe-c(Cys-Tyr-D-Trp-Lys-Abu-Cys)-Thr-NH2 [Compound B di-oleate],Log KOPBS,"[1]; n-octanol/PBS pH 7.4, 37° C.",−1.398
same,O/PBS Coefficient (KOPBS),"[1]; n-octanol/PBS pH 7.4, 37° C.",0.04
same,Log KOW,[1]; [4],2.532
same,O/W Coefficient (KOW),[1]; [4],340.43
same,increase in total peptide flux over 48 hours due to cineole,[2]; 55/40/5 ethanol/water/cineole vs 55/45 ethanol/water,19.26%
same,Jmax,[2]; [5],39.838 μg/cm^2/hr
same,Jss,[2]; [5],24.075 μg/cm^2/hr
same,Lag Time,[2]; [5],1 h
same,Total Absorption,[2]; [5],"3,279.62 μg/48 hr"
same,Jmax,[2]; [6],32.902 μg/cm^2/hr
same,Jss,[2]; [6],20.264 μg/cm^2/hr
same,Lag Time,[2]; [6],1 h
same,Total Absorption,[2]; [6],"2,750.01 μg/48 hr"
same,Lag Time,[2]; [7],1 h
same,Total Absorption,[2]; [7],814.86 μg/48 hr
same,Jmax,[2]; [8],21.407 μg/cm^2/hr
same,Jss,[2]; [8],5.158 μg/cm^2/hr
same,flux profile in DMSO compared with other salts,"[2]; vs myristate, octanoate, decanoate, linoleate, nonanoate, acetate, laurate salts of Compound A and acetate of Compound B",far exceeded
same,Jmax,[3]; [9],4.200 μg/cm^2/hr
same,Jss,[3]; [9],0.309 μg/cm^2/hr
same,Lag Time,[3]; [9],1 h
same,Total Absorption,[3]; [9],56.89 μg/48 hr
same,Jmax,[3]; [10],9.224 μg/cm^2/hr
same,Jss,[3]; [10],5.552 μg/cm^2/hr
same,Lag Time,[3]; [10],1 h
same,Total Absorption,[3]; [10],814.44 μg/48 hr
same,Jmax,[3]; [11],6.085 μg/cm^2/hr
same,Jss,[3]; [11],4.539 μg/cm^2/hr
same,Lag Time,[3]; [11],3.5 h
same,Total Absorption,[3]; [11],917.18 μg/48 hr
same,Jmax,[3]; [12],3.983 μg/cm^2/hr
same,Jss,[3]; [12],3.335 μg/cm^2/hr
same,Lag Time,[3]; [12],5 h
same,Total Absorption,[3]; [12],600.35 μg/48 hr
